Reference: US12185723B2, “Herbicidally active 3-phenylisoxazoline-5-carboxamides of s-containing cyclopentenylcarboxylic esters” (Bayer Aktiengesellschaft, priority 2019, dated 2025)

What was measured:
Format in all cases: in vivo
Setaria viridis = test: Post-emergence herbicidal action against SETVI; conditions: visual rating about 3 weeks after treatment
Method: (§1) Post-Emergence Herbicidal Action Against Harmful Plants and Crop Plant Compatibility Seeds of monocotyledonous and dicotyledonous weeds and crop plants are placed in sandy loam in plastic or wood-fibre pots, covered with soil and cultivated in a greenhouse under controlled growth conditions. 2 to 3 weeks after sowing, the test plants are treated at the one-leaf stage. The compounds of the invention, formulated in the form of wettable powders (WP) or as emulsion concentrates (EC), are then sprayed onto the green parts of the plants as aqueous suspension or emulsion with addition of 0.5% additive at a water application rate of 600 l/ha (converted). After the test plants have been kept in the greenhouse under optimum growth conditions for about 3 weeks, the activity of the preparations is rated visually in comparison to untreated controls. For example, 100% activity=the plants have died, 0% activity=like control plants. [table]

Abutilon theophrasti = test: Post-emergence herbicidal action against ABUTH; conditions: 20 g a.i./ha, visual rating about 3 weeks after treatment
Method: as §1

Echinochloa crus-galli = test: Post-emergence herbicidal action against ECHCG; conditions: 20 g a.i./ha, visual rating about 3 weeks after treatment
Method: as §1

Amaranthus retroflexus = test: Post-emergence herbicidal action against AMARE; conditions: 20 g a.i./ha
Method: as §1

Lolium rigidum = test: Post-emergence herbicidal action against LOLRI; conditions: 20 g a.i./ha, visual rating about 3 weeks after treatment
Method: as §1

Pharbitis purpurea = test: Post-emergence herbicidal action against PHBPU; conditions: 20 g a.i./ha
Method: as §1

DIGSA = test: Post-emergence herbicidal action against DIGSA; conditions: 20 g a.i./ha, visual rating about 3 weeks after treatment
Method: as §1, with “plants.” for “plants. [table]”

Veronica persica = test: Post-emergence herbicidal action against VERPE; conditions: 20 g a.i./ha
Method: as §1

Alopecurus myosuroides = test: Post-emergence herbicidal action against ALOMY; conditions: 20 g a.i./ha, visual rating about 3 weeks after treatment
Method: as §1

Polygonum convolvulus = test: Post-emergence herbicidal action against POLCO; conditions: 20 g a.i./ha
Method: as §1

Avena fatua = test: Post-emergence herbicidal action against AVEFA; conditions: 20 g a.i./ha, visual rating about 3 weeks after treatment
Method: as §1

| SMILES | Herbicidal action against [%] SETVI (Setaria viridis; 20 g a.i./ha) [%] | Herbicidal action against [%] ABUTH (Abutilon theophrasti) [%] | Herbicidal action against [%] ECHCG (Echinochloa crus-galli) [%] | Herbicidal action against [%] AMARE (Amaranthus retroflexus) [%] | Herbicidal action against [%] LOLRI (Lolium rigidum) [%] | Herbicidal action against [%] PHBPU (Pharbitis purpurea) [%] | Herbicidal action against [%] DIGSA (DIGSA) [%] | Herbicidal action against [%] VERPE (Veronica persica) [%] | Herbicidal action against [%] ALOMY (Alopecurus myosuroides) [%] | Herbicidal action against [%] POLCO (Polygonum convolvulus) [%] | Herbicidal action against [%] AVEFA (Avena fatua) [%] | Herbicidal action against [%] SETVI (Setaria viridis; 80 g a.i./ha) [%] |
| --- | --- | --- | --- | --- | --- | --- | --- | --- | --- | --- | --- | --- |
| CC1(C(=O)NC2C=CC(C(=O)OCCSCc3ccc(F)cc3)C2)CC(c2cc(F)cc(F)c2)=NO1 (stereo not shown) [Example I-09] | 90 | 80 | 90 | 90 | 90 | 80 | 90 | 90 | 90 | 80 | 90 | – |
| COC1(C(=O)NC2C=CC(C(=O)OCCSC)C2)CC(c2cc(C)cc(F)c2)=NO1 (stereo not shown) [Example I-62] | 90 | – | 80 | 90 | 90 | 80 | 80 | 90 | 90 | 80 | 80 | – |
| C=CCSCCOC(=O)C1C=CC(NC(=O)C2(OC)CC(c3cc(F)cc(F)c3)=NO2)C1 (stereo not shown) [Example I-26] | – | 80 | 80 | 80 | 90 | – | 90 | 80 | 90 | 80 | 90 | – |
| CC1(C(=O)NC2C=CC(C(=O)OCCSC3CCCCC3)C2)CC(c2cc(F)cc(F)c2)=NO1 (stereo not shown) [Example I-03] | 80 | – | 80 | – | – | 80 | 80 | – | 90 | 80 | – | – |
| CSCCOC(=O)C1C=CC(NC(=O)C2(C3CC3)CC(c3cc(F)cc(F)c3)=NO2)C1 (stereo not shown) [Example I-27] | – | – | – | – | – | – | – | – | – | – | – | 90 |
| COC1(C(=O)NC2C=CC(C(=O)OCCSC(F)(F)F)C2)CC(c2cc(F)cc(F)c2)=NO1 (stereo not shown) [Example I-21] | 80 | 80 | 90 | – | 100 | – | 80 | 90 | 90 | 80 | 80 | – |
| CSCCOC(=O)C1C=CC(NC(=O)C2(CF)CC(c3cc(F)cc(F)c3)=NO2)C1 (stereo not shown) [Example I-74] | – | 90 | 90 | 80 | 90 | – | 90 | 80 | – | – | – | – |
| CSCCOC(=O)C1C=CC(NC(=O)C2(C)CC(c3cc(C#N)cc(C#N)c3)=NO2)C1 (stereo not shown) [Example I-52] | – | – | – | – | – | 80 | – | 80 | 90 | 80 | 80 | – |
| CSCCOC(=O)C1C=CC(NC(=O)C2(C)CC(c3cc(Cl)cc(C#N)c3)=NO2)C1 (stereo not shown) [Example I-72] | 90 | – | 80 | 80 | 90 | – | 90 | 80 | 90 | 80 | 80 | – |
| CC(C)C(=O)SCCOC(=O)C1C=CC(NC(=O)C2(C)CC(c3cc(F)cc(F)c3)=NO2)C1 (stereo not shown) [Example I-05] | 80 | – | 80 | – | – | 80 | 80 | 80 | 100 | 80 | – | – |
| C=CC1(C(=O)NC2C=CC(C(=O)OCCSC)C2)CC(c2cccc(F)c2)=NO1 (stereo not shown) [Example I-35] | 90 | – | 90 | 80 | 90 | 80 | 90 | 80 | 90 | 90 | 90 | – |
| CSCCOC(=O)C1C=CC(NC(=O)C2(C)CC(c3cc(C)cc(F)c3)=NO2)C1 (stereo not shown) [Example I-59] | – | – | 80 | 80 | – | 80 | 90 | 80 | – | – | – | – |
| CSCCOC(=O)C1C=CC(NC(=O)C2(CO)CC(c3cc(F)cc(F)c3)=NO2)C1 (stereo not shown) [Example I-70] | 90 | – | 90 | – | – | 80 | – | – | 100 | 80 | 80 | – |
| CSCCOC(=O)C1C=CC(NC(=O)C2(C)CC(c3cc(C)cc(Cl)c3)=NO2)C1 (stereo not shown) [Example I-75] | 90 | 80 | 90 | – | – | 80 | 90 | 80 | 90 | – | 80 | – |
| C=CC1(C(=O)NC2C=CC(C(=O)OCCSC)C2)CC(c2cc(C)cc(F)c2)=NO1 (stereo not shown) [Example I-56] | – | – | – | – | 80 | – | – | – | 80 | 80 | – | – |
| CC(=O)CCSCCOC(=O)C1C=CC(NC(=O)C2(C)CC(c3cc(F)cc(F)c3)=NO2)C1 (stereo not shown) [Example I-15] | – | – | 80 | – | 80 | – | 80 | 80 | 90 | 80 | – | – |
| C[S+]([O-])CCOC(=O)C1C=CC(NC(=O)C2(C)CC(c3cccc(F)c3)=NO2)C1 (mixture of isomers) [Example I-61] | 80 | – | 80 | 80 | – | – | – | 80 | 80 | – | – | – |
| CSCCOC(=O)C1C=CC(NC(=O)C2(CCl)CC(c3cc(F)cc(F)c3)=NO2)C1 (stereo not shown) [Example I-60] | – | – | 80 | 80 | 80 | – | – | – | 80 | 80 | 80 | – |
| CCSCCOC(=O)C1C=CC(NC(=O)C2(OC)CC(c3cc(F)cc(F)c3)=NO2)C1 (stereo not shown) [Example I-22] | 90 | 80 | 80 | 80 | 90 | 80 | 90 | 90 | 90 | – | 90 | – |
| CSCCOC(=O)C1C=CC(NC(=O)C2(CCl)CC(c3cc(F)cc(C#N)c3)=NO2)C1 (stereo not shown) [Example I-58] | – | – | 80 | – | – | – | – | 80 | 90 | 80 | 80 | – |
| CC1(C(=O)NC2C=CC(C(=O)OCCS(C)(=O)=O)C2)CC(c2cc(F)cc(F)c2)=NO1 (stereo not shown) [Example I-14] | 90 | – | 80 | 90 | 90 | 80 | 90 | 90 | 90 | – | 80 | – |
| CN(C)C(=O)SCCOC(=O)C1C=CC(NC(=O)C2(C)CC(c3cc(F)cc(F)c3)=NO2)C1 (stereo not shown) [Example I-04] | 80 | 80 | 80 | – | – | 80 | 80 | 80 | 100 | – | 80 | – |
